The test deals with iPSC-derived cortical neurons. Nature of the test: Pre- and post-synaptic marker (Synapsin, PSD95) puncta and colocalization imaging analysis. It counts as cell-based, human. To be noted: for intact synapses (colocalization of pre- and post-synaptic terminals), treated vs untreated: 7 days after treatment (Bupropion also 3 days). The method, then: iPSC differentiation into neurons-iPSCs were seeded at a density of 3×10^6 cells/well on a hESC-qualified Matrigel pre-coated 6-well plate and incubated at 37° C., 5% CO2 overnight. Differentiation was initiated the following day (day 0) after verifying that 100% confluency was reached. Differentiation media was added daily according to the following order: […]7 (day 15 onward) similar to a previously published protocol developed by for rapid differentiation to cortical neurons. The components of the described media, Q1-7, are provided in Appendix 1. Cells were assessed for differentiation efficiency and cell death on a daily basis. On day 9, differentiated neurons were re-plated on either 96-well plates (destined for staining) or 12-well plates (destined for RNA extraction) that were coated with 15 μg/mL Poly-ornithine diluted in PBS (overnight incubation at 37° C.), followed by 1 μg/mL Laminin and 2 μg/mL Fibronectin diluted in PBS (overnight incubation at 37° C.): Neurons were first rinsed with pre-warmed PBS and 1 ml/well of Accutase was added for 35 minutes at 37° C., 5% CO2. DNAse1 (0.5 mg/mL) was then added for 10 additional minutes. 3 ml of pre-warmed Neurobasal media was added to each well and neurons were gently collected using a 5 ml […]. Wells were then verified for the presence of any remaining neurons. Neurons were spun down and resuspended in Q6 media. Neurons were seeded at a density of 150,000 cells/cm^2 placed back at 37° C. Following four hours of incubation, media was changed to Q6 media (150 μl per 96-well and 1 ml per 12-well). […] For dendritic arborization analysis, pre/post-synaptic markers and colocalization analysis; α-Syn, PSD95 and MAP2 primary antibodies were used. Following washes, fluorophore-coupled secondary antibodies were incubated in the blocking solution for 1 hour at room temperature. The cells were counter-stained with 4',6-diamidino-2-phenylindole (DAPI) for nuclei detection for 15 minutes at room temperature followed by washes with PBS. Imaging was performed using Nikon Spinning Disk Confocal microscope. For imaging of pre- and post-synaptic markers, images were acquired with a 100× objective in z-stacks. For dendritic arborization analysis, images were acquired with a 20× objective in z-stacks. For imaging of dendritic spines, during culture treatment described in materials and methods, cells were infected at Day 20 with human syn-GFP or mKate virus and stained for GFP or mKate. Cells were fixed as described at day 35 and stained with antibodies against GFP or mKate respectively. Images were acquired using the Nikon Confocal Alit with a 60× objective and a 2× digital zoom in z-stacks and using the Nikon spinning disk Microscope with a 100× objective in z-stacks. Neuronal and synaptic morphology was assessed using the Neurolucida software, pre- and post-synaptic marker analysis was performed using CellProfiler and total dendritic length was measured using Fiji software. Immunohistochemical examination was carried out on the induced neuronal cells.

SMILES strings stand for the structures.

The source of these data is patent US20230094922A1, “METHODS OF THERAPEUTIC PROGNOSTICATION” (GENETIKAPLUS LTD., priority 2020, published 2023).

Consider `CC(NC(C)(C)C)C(=O)c1cccc(Cl)c1` (stereo not drawn) [Bupropion, 3-Chloro-N-tert-butyl-β-keto-α-methylphenethylamin], for which, under “after treatment”, the “density of post-synaptic terminals (PSD95 puncta), responders vs non-responders” value is “increase in density”. Further, the “intact synapses, responders vs non-responders” value (after treatment) was “increase”. Also, the “size of PSD95 puncta (perimeter), responders vs non-responders” value (at baseline and after treatment) was “reduced”. Also, the “levels of pre-synaptic terminals (Synapsin puncta), responders vs non-responders” value (both before and after treatment) was “significantly higher”. In addition, the “pre-synaptic terminals (Synapsin puncta density), following treatment” value (both responders and non-responders) is listed as “increase”. Further, the “Synapsin puncta perimeter size, effect of treatment” value is, setting by setting: (cells from non-responders) “reduction in puncta perimeter size”; (cells from responders) “increase in puncta perimeter size”. Besides, the “intact synapses (colocalization of pre- and post-synaptic terminals), treated vs untreated” value (neurons from non-responders) is recorded as “increased intact synapses”; the “intact synapses (colocalization of pre- and post-synaptic terminals), treated vs untreated” value (neurons from responders) is given as “increased intact synapses”. The “density of post-synaptic terminals (distance between PSD95 puncta), after vs before treatment” value (neurons from responders, 7 days after treatment) is listed as “significantly increased”. Also, the “size of PSD95 puncta (perimeter), effect of treatment” value (responders and non-responders) is reported as “no significant effect”.
